Measured values: patent US9700609B2, “Compositions for treatment and/or prevention of autoimmune disorders” (University of Florida Research Foundation, Incorporated, priority 2013, dated 2017)

Key:
[1] = tested on: CD11b+ and CD11c+ leukocytes (APC); test: APC frequency and MHC expression by flow cytometry in splenocyte cultures with graded doses of bacteria and anti-CD3; type: cell-based, NOD and NOR mice
Procedure: FIG. 8. LjN6.2, but not LrTD1, increases APC activation in NOD mice. Spleenocytes derived from NOD or NOR mice, were cultured with graded doses of LjN6.2 or LrTD1 in the presence of anti-CD3. Following 48 hours incubation, samples were analyzed through flow cytometry for APC activation. A) Histograms showing changes in CD11b and CD11c frequencies upon treatment of NOD in vitro leukocyte cultures with LjN6.2 (red), LrTD1(black) or CD3 (shaded). B) Graphs showing percentage of CD11b^+ and CD11c^+ leukocytes in NOD and NOR cells cultures incubated with graded doses of bacteria as indicated. C) Graphs showing changes in MHC expression levels on CD11c^+ and CD11b^+ APC upon treatment with graded doses of LjN6.2 (shaded square) or LrTD1 (open square).
(§1) Whole lymphocytes or BMOC were incubated with 4 μg/mL anti-CD3, (LjN6.2) and/or L. reuteri TD1 (LrTD1) at various concentrations as indicated. At 48 hours, 100 μL of supernatant was removed from each well and replenished with fresh medium. Cytokine ELISAs were subsequently performed on harvested supernatants. ELISA kits were purchased from BD Bioscience: anti-IFNγ (555138; BD Biosciences, San Diego, Calif.), and anti-IL6 (555240). Capture mAb (555068) and detection mAb (555067) for IL17 were purchased from BD Biosciences. Cytokine standard for IL-17A was purchased from eBioscience (14-8171-80).
Single cell suspensions of pooled LN (axillary, inguinal, brachial, mesenteric, and superficial cervical), and spleen were stained with the following mAbs for flow-cytometric analysis: anti-CD4-Pacific Blue (RM4-5), anti-MHC I-FitC (KH95), anti-CD11c-PE (N418; eBioscience, San Diego, Calif.), anti-B220-APC (RA3-6B2, eBioscience), anti-CD11b-A700 (M1/70), anti-CD11b-FitC (M1/70, eBioscience), […] (N418, eBioscience), anti CD86-A700 (GL1), anti-CD80-PE (16-10A1), DEC 205-APC (205yekta) and anti-MHC II-FC (39-10-8) mAb. All flow cytometry antibodies were purchased from BD PharMingen unless otherwise stated. 50,000-100,000 live events were collected on a LSRII (BD PharMingen) and analyzed using FlowJo software (Tree Star, San Carlos, Calif.). The absolute numbers of cells recovered from various organs was determined by multiplying the total number of cells isolated from various tissues by the percentage of total cells bearing a lineage specific marker denoted by flow cytometry.

BBDP rats = conditions: cited from earlier work; for Th17 bias: BBDP rat and NOD mouse (Lau et al. (2011)); for T1D resistance: oral transfer to BBDP rats (Valladares et al. (2010))
[2] = tested on: LN cells (CD11b+ leukocytes); test: CD11b and CD40 expression in pooled LN cells cultured with bacteria, flow cytometry; type: cell-based, NOD mice; conditions: NOD pooled LN cells, 48 hour incubation
Procedure: FIG. 12. LjN6.2 but not LrTD1 up-regulates expression of CD11b. LN cells (brachial, inguinal, cervical and mesenteric) were isolated from NOD mice and pooled, followed by culturing in the presence or absence of bacteria. After 48 hour incubation, supernatants were removed and cells were analyzed by flow cytometry. Please note that concentration 1 (Lj1 and Lr1) is 3 fold higher than concentration 2 (Lj2 and Lr2).
FIG. 13. […] LN cells (brachial, inguinal, cervical and mesenteric) were isolated from NOD mice and pooled followed by culture in the presence or absence of bacteria. After 48 hour incubation, supernatants were removed and cells were analyzed by flow cytometry. CD11b^+ cells were first gated and then further analyzed for CD40 expression. Please note that concentration 1 (Lj1 and Lr1) is 3 fold higher than concentration 2 (Lj2 and Lr2).
Single cell suspensions of pooled LN (axillary, inguinal, brachial, mesenteric, and superficial cervical), and spleen were stained with the following mAbs for flow-cytometric analysis: anti-CD4-Pacific Blue (RM4-5), anti-MHC I-FitC (KH95), anti-CD11c-PE (N418; eBioscience, San Diego, Calif.), anti-B220-APC (RA3-6B2, eBioscience), anti-CD11b-A700 (M1/70), anti-CD11b-FitC (M1/70, eBioscience), […] (N418, eBioscience), anti CD86-A700 (GL1), anti-CD80-PE (16-10A1), DEC 205-APC (205yekta) and anti-MHC II-FC (39-10-8) mAb. […]

DEC205 on CD11c+ DC = test: DEC205 expression on CD11c+ DC in splenocyte cultures, flow cytometry; type: cell-based, NOD and NOR mice; conditions: both NOD and NOR CD11c+ DC, dose dependent
Procedure: FIG. 9. Enhanced DC maturation mediated by LjN6.2 surface antigens. Spleenocytes derived from NOD or NOR mice, were cultured with graded doses of LjN6.2 or LrTD1in the presence of anti-CD3, as in FIG. 4. Subsequent to incubation, samples were analyzed for expression of the endocytic marker, DEC 205. A) Overlay histograms showing changes in DEC205 frequency on CD11c^+ DC upon treatment of NOD cultures with varying doses of LjN6.2 and LrTD1. B) Graphical representations of DEC205 expression on CD11c^+ DC present within NOD and NOR cultures upon incubation with varying doses of LjN6.2 and LrTD1. […]
Single cell suspensions of pooled LN (axillary, inguinal, brachial, mesenteric, and superficial cervical), and spleen were stained with the following mAbs for flow-cytometric analysis: anti-CD4-Pacific Blue (RM4-5), anti-MHC I-FitC (KH95), anti-CD11c-PE (N418; eBioscience, San Diego, Calif.), anti-B220-APC (RA3-6B2, eBioscience), anti-CD11b-A700 (M1/70), anti-CD11b-FitC (M1/70, eBioscience), […] (N418, eBioscience), anti CD86-A700 (GL1), anti-CD80-PE (16-10A1), DEC 205-APC (205yekta) and anti-MHC II-FC (39-10-8) mAb. […] 50,000-100,000 live events were collected on a LSRII (BD PharMingen) and analyzed using FlowJo software (Tree Star, San Carlos, Calif.). […]

NOD mice = test: Systemic Th17 bias after oral feeding or pulsed DC vaccination; type: in vivo; conditions: oral feeding
Source text: In apparent contrast, T1D onset can also be inhibited through the generation of Foxp3^+ regulatory T cells which can be mediated by tolerogenic, immature DC. […] Therefore, restoration of DC function by oral administration of specific bacteria, or administration of a vaccine composed of gut flora modified DC, can be used to restore immune tolerance.

T lymphocytes = test: IFNγ production and IFNγ+/IL17+ T lymphocytes after bacterial treatment; type: cell-based
Procedure: FIG. 14. L. johnsonii modulates adaptive immune response. […] Also, L. johnsonii increased the percentages of IFNγ^+ and IL17^+ T lymphocytes in a dose dependent manner.
as §1

BMDC = test: IL6 production by BMDC incubated with LjN6.2 or lysed bacterial components, ELISA; type: cell-based, NOD mice; conditions: NOD BMDC matured with GM-CSF
Procedure: FIG. 9. Enhanced DC maturation mediated by LjN6.2 surface antigens. Spleenocytes derived from NOD or NOR mice, were cultured with graded doses of LjN6.2 or LrTD1in the presence of anti-CD3, as in FIG. 4. Subsequent to incubation, samples were analyzed for expression of the endocytic marker, DEC 205. A) Overlay histograms showing changes in DEC205 frequency on CD11c^+ DC upon treatment of NOD cultures with varying doses of LjN6.2 and LrTD1. B) Graphical representations of DEC205 expression on CD11c^+ DC present within NOD and NOR cultures upon incubation with varying doses of LjN6.2 and LrTD1. C) Maturing DC (BMDC), derived from NOD mice were matured in the presence of GM-CSF, followed by incubation with LjN6.2 or beadbeater lysed LjN6.2 bacterial cellular components. Left, graph showing IL6 production by BMDC incubated with either intact LjN6.2, or fractional equivalents of nonviable lysed LjN6.2 components defined by ultracentrifugation as membrane (pellet components) or cytosolic (soluble) components. […]
Bacterial cells were incubated with 0.1 mm glass beads and homogenized through the use of a beadbeater (Qbiogene) according to manufacturers' instructions. […] Efficiency of bacterial disruption was assessed through the culture of bacterial lysates on agar plates under anaerobic conditions.

For L. reuteri TD1 [LrTD1], the “modulation of MHC” value ([1]; CD11c+ and CD11b+ APC, in contrast to LjN6.2) is given as “reduced, or negligible”, the Th17 bias (BBDP rats) is given as “nor mediated a Th17 bias” and the T1D resistance (BBDP rats) is given as “neither conferred T1D resistance”.
With Lactobacillus johnsonii N6.2 [LjN6.2] the CD11b expression [2] was “up-regulates”, the “CD40 expression on CD11b+ leukocytes” value [2] was “up-regulated” and the “levels of MHC classes I and II on CD11c+ DC” value ([1]; NOD derived CD11c+ DC, dose dependent) was “upregulated”. For the same substance, the “frequency of both CD11b+ and CD11c+ leukocytes” value ([1]; NOD derived primary cell cultures, graded doses, anti-CD3, 48 hours) was “consistently up-regulated”, the “frequency of CD11b+ and CD11c+ leukocytes” value ([1]; NOR cultures, graded doses, anti-CD3, 48 hours) was “only moderately increased” and the “MHCI and MHCII expression on CD11c+ DC” value ([1]; NOR derived CD11c+ DC) was “failed to specifically increase”. The “CD11b+MHCIhi leukocytes” value ([1]; both NOD and NOR cultures) was “decrease”, the “frequency of CD11b+MHCIIhi leukocytes” value ([1]; both NOD and NOR cultures) was “increase” and the “DEC205 expression on CD11c+ DC” value (DEC205 on CD11c+ DC) was “down-regulation”. For the same substance, the “systemic Th17 bias” value (NOD mice) was “sufficient to mediate a systemic Th17 bias”, the Th17 bias (BBDP rats) was “APC dependent, Th17 bias observed” and the T1D resistance (BBDP rats) was “sufficient to confer T1D resistance”. The IFNγ production (T lymphocytes; compared with L. reuteri) was “more profoundly than L. reuteri”, the “percentages of IFNγ+ and IL17+ T lymphocytes” value (T lymphocytes; dose dependent) was “increased” and the “IL6 production by BMDC” value (BMDC) was “copious amounts”.
